Experiment [1] concerns the target T1, TRPM4 (Homo sapiens, UniProt Q8TD43).
T1 construct: expressed in transfected cells; host or cells: TrexHEK-293 (tetracycline-inducible HEK-293)
In words: Whole-cell patch-clamp of TRPM4 currents in TrexHEK-293 cells overexpressing TRPM4, buffered [Ca2+]i. It counts as cell-based. The conditions noted are these: flag-TRPM4-TrexHEK293, current at +80 mV. On the technique in general: In patch-clamp work, channel activity is measured electrically.

For experiment [2], the target named is T2, TRPM4 (Rattus norvegicus, UniProt Q9ESQ5). In words: Whole-cell patch-clamp of TRPM4 currents in INS-1 cells perfused with buffered [Ca2+]i. Details: The channel was detected in INS-1 and RINm5F cell lines; endogenous in cells; host or cells: INS-1 (rat insulinoma beta-cell line). It counts as cell-based. The conditions noted are these: current amplitude at +80 mV.

Experiment [3] has as its target T2, TRPM4. In words: Glibenclamide on TRPM4 currents in INS-1 cells. The settings on record: pressure applied.
For experiment [4], the system named is TRPM4. Nature of the experiment: Agonist-induced TRPM4 currents in TrexHEK293 cells overexpressing TRPM4 (double carbachol application). The class given is cell-based, human. On the procedure:
Patch-clamp experiments were performed in the tight-seal whole-cell configuration at 21-25 ° C. High-resolution current recordings were acquired by a computer-based patch-clamp amplifier system (EPC-9, HEKA, Lambrecht, Germany). Patch pipettes had resistance between 3-6 MΩ after filling with the standard intracellular solution. […] Currents were filtered at 2.9 kHz and digitized at 100 μs intervals. Capacitive currents and series resistance were determined and corrected before each voltage ramp using the automatic capacitance compensation of the EPC-9. The low-resolution temporal development of membrane currents was assessed by extracting the current amplitude at -80 mV or +80 mV from individual ramp current records. Data analysis, statistical analysis and graphical display of patch-clamp experiments were done using the Igor […] software program (Wavemetrics). […] Cells were treated with carbachol twice according to protocol used in the calcium measurement experiments (n=5). First, to induce exocytosis of TRPM4 containing vesicles and second to activate the new pool of TRPM4 present in the plasma membrane. Utilizing Ca^2+ imaging techniques, fura-2-AM loaded cells were stimulated with 1 mM carbachol for 200 s followed by washout and a second stimulation (FIG. 9A). […]

The mark [5] stands for this setting: 600 s, read-out: KD, dose-response fit of TRPM4 activation, secondary phase.

pKd: −log10 of the molar value. Like-named read-outs stand apart in the source and are kept apart here.

T2 sequence (Q9ESQ5 whole entry, the tested form may be a part): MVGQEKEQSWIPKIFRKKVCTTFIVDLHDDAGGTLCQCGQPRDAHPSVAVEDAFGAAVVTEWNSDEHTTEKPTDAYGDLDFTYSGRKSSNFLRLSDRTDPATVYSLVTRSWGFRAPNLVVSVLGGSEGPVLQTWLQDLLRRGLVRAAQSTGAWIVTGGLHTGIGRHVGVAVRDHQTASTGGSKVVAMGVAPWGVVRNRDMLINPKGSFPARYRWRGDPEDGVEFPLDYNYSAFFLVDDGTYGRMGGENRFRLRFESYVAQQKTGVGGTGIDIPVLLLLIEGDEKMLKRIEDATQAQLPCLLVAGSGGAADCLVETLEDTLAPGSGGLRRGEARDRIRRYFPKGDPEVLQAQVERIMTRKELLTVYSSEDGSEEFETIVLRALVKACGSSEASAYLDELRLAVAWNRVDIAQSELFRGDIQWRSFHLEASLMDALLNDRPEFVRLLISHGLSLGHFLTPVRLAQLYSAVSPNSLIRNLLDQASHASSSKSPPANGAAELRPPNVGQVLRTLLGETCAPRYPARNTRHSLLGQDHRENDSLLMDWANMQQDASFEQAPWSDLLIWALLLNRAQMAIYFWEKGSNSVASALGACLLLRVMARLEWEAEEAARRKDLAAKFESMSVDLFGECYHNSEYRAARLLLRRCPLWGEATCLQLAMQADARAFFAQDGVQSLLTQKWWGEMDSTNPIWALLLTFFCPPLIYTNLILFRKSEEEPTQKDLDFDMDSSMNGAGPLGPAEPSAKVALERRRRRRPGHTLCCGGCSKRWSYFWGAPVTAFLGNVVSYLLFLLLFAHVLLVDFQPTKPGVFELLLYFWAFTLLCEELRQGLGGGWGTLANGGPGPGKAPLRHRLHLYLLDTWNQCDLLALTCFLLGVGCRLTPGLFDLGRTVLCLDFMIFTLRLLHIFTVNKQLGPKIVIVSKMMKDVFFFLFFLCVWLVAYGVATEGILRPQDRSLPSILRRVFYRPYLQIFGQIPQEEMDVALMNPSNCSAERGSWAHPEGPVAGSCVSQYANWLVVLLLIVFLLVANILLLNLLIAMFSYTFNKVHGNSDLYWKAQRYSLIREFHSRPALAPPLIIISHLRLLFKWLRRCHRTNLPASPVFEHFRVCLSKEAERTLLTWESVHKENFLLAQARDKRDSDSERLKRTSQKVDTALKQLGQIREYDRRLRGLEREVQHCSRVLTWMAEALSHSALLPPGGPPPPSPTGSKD
T1 sequence (Q8TD43 whole entry): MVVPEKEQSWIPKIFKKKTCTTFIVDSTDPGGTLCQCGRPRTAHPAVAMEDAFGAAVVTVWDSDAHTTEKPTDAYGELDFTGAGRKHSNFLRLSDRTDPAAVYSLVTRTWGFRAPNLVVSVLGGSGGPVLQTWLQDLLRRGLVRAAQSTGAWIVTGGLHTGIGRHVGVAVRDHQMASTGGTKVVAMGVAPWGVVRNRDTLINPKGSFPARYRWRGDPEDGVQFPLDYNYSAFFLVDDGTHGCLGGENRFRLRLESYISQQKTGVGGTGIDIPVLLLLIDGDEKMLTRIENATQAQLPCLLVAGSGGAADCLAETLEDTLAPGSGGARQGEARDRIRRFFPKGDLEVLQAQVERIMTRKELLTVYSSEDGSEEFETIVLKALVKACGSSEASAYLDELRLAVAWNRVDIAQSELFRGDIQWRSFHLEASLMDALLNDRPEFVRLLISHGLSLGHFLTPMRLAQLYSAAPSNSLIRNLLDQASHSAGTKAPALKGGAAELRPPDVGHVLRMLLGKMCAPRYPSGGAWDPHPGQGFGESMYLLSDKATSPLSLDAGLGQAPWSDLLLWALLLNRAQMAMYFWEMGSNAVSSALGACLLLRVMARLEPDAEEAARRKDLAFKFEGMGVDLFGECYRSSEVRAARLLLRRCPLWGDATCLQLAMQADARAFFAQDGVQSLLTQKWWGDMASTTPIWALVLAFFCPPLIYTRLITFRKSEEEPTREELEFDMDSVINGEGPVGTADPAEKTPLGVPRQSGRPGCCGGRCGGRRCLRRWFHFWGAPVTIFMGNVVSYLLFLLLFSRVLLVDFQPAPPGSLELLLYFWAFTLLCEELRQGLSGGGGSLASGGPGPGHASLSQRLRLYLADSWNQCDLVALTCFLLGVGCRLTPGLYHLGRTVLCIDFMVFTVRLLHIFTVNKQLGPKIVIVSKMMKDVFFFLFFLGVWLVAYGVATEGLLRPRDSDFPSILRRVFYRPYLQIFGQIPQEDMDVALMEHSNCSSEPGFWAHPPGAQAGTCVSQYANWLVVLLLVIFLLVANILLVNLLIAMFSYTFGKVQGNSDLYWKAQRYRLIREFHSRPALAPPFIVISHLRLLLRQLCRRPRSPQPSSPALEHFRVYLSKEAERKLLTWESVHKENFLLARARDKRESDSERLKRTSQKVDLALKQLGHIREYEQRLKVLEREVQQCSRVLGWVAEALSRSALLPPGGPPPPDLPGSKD

For `[Ca+2]` [Ca^2+], the pKd (usually −log10 of the Kd, conventionally taken in molar units) on TRPM4 [1] (setting [5]) is 5.89; at TRPM4 [1] (peak of first phase, read-out: KD, dose-response fit of TRPM4 activation, first phase), 5.92; on TRPM4 [2] (80 s, read-out: KD, dose-response fit of TRPM4 activation, first phase), 5.77; on TRPM4 [2] (setting [5]), 5.92.

On to `COc1ccc(Cl)cc1C(=O)NCCc1ccc(S(=O)(=O)NC(=O)NC2CCCCC2)cc1` [Glibenclamide, glibenclamide], for which the “effect on TRPM4 channels” value on TRPM4 [3] is recorded as “activates TRPM4 channels”.

As to `C[N+](C)(C)CCOC(N)=O` [carbachol], the figures for the TRPM4 current amplitude entry in the experiment with TRPM4 [4] (first application of 1 mM carbachol) and with TRPM4 [4] (second carbachol application after washout) were “less than 1 nA” and “around 10 nA”, respectively.

For the origin of these results see patent US8148083B2, “Methods of screening for TRPM4 modulators of insulin secretion” (The Queen's Medical Center, priority 2006, dated 2012).
